Values joined by “and” are separate entries in the source; they are usually repeats but may differ in a detail not shown here. Identical values can stand only once. “Also recorded” adds a separate entry of the source. Like-named read-outs stand apart in the source and are kept apart here.
Tests used:
human CB1 receptor [1] = biological target: T1, human CB1 receptor (Homo sapiens, UniProt P21554); assay: CB1 receptor binding, [3H]CP55,940 displacement in membranes of transfected cells
T1 construct: expressed in transfected cells; b94 says CHO for CB1
Experimental: (§1) For the in vivo studies, the drugs were dissolved in either saline or emulphor:ethanol:saline (E:E:S) as indicated.
(§2) cLogP calculations. Absolute solubility determinations were not performed. Rather, cLogP calculations were performed using the CS ChemDraw Ultra software (Cambridge Soft Corporation, Cambridge, Mass.). Receptor Binding. HEK-293 cells stably expressing the human CB1 receptor were cultured in DMEM with 10% FBS and Chinese Hamster Ovary (CHO) cells stably expressing the human CB2 receptor were cultured in DMEM with 10% FCS. Cells were harvested by replacement of the media with cold phosphate-buffered saline containing 1 mM EDTA followed by centrifugation at 1000×g for 5 min at 4° C. The pellet was resuspended in 50 mM Tris-HCl containing 320 mM sucrose, 2 mM EDTA and 5 mM MgCl2 (pH 7.4) (centrifugation buffer), then centrifuged at 1000×g for 10 min at 4° C., and the resulting supernatant was saved. This process was repeated twice. The supernatant fractions were combined and centrifuged at 40,000×g for 30 min at 4° C. The resulting P2 pellet was resuspended in assay buffer (50 mM Tris-HCl (pH 7.4), 3 mM MgCl2, 0.2 mM EGTA, and 100 mM NaCl) and protein was determined by the method of Bradford ENRfu(Bradford 1976). Membranes were stored at −80° C. until use. […] The assay was incubated at 30° C. for 1 hr and terminated by addition of ice cold 50 mM Tris-HCl plus BSA (1 mg/ml) (pH 7.4) followed by filtration under vacuum through Whatman GF/B glass fiber filters with 3 washes with cold Tris buffer. Bound radioactivity was determined by liquid scintillation spectrophotometry at 50% efficiency after extraction by shaking samples for 30-60 min with Budget-Solve scintillation fluid. Data are reported as the mean±SEM of three experiments, each performed in triplicate. Ki values were calculated from displacement data using EBDA (Equilibrium Binding Data Analysis; BIOSOFT, Milltown, N.J.). [^35S]GTPγS Binding Assays. Concentration-effect curves were generated by incubating membranes (10 μg prepared from CB1 expressing cells as described above) in assay buffer containing BSA (1 mg/ml) with various concentrations of test compounds in the presence of 20 μM GDP and 0.1 nM [^35S]GTPγS in a 1 ml total volume. […] Basal binding was assessed in the absence of agonist, and nonspecific binding was measured in the presence of 10 μM GTPγS. The reaction was incubated for 90 min at 30° C. and terminated by filtration under vacuum through Whatman GF/B glass fiber filters with 3 washes with cold (4° C.) Tris buffer (50 mM Tris-HCl, pH 7.4). Bound radioactivity was determined by liquid scintillation spectrophotometry at 95% efficiency after extraction overnight in ScintiSafe Econo 1 scintillation fluid. Data are reported as mean±SEM of three experiments, each performed in triplicate. Nonlinear regression analysis was conducted by iterative fitting using JMP (SAS for Macintosh). Net-stimulated [^35S]GTPγS binding is defined as [^35S]GTPγS binding in the presence of drug minus basal and percent stimulation is expressed as (net stimulated [^35S]GTPγS binding/basal)×100%. Behavioral Evaluations. All animals were allowed to acclimate to the observation room overnight. Behavioral effects were assessed in the tetrad model in order to measure potency in producing antinociception, catalepsy, hypothermia, and hypomobility. The baselines for tail-flick latency (2-4 seconds) and rectal temperature were determined prior to i.v. injections. Baseline rectal temperatures were measured using a telethermometer and a thermometer probe inserted to 25 mm (Yellow Springs Instrument Co., Yellow Springs, Ohio). The mice were then given either an i.v. i.c.v. injection of the analog. The mice were placed in individual photocell activity chambers 5 min later. Spontaneous activity was monitored for 10 min in a Digiscan Animal Activity Monitor (Omnitech Electronice, Inc., Columbus, Ohio) as measured by the number of interruptions of 16 photocell beams per chamber.

human CB1 receptor [2] = biological target: T1, human CB1 receptor; assay: [35S]GTPγS binding assay in membranes of CB1 expressing cells; type: biochemical; conditions: for EC50: mean±SEM; for Emax: read-out: CB1 % CP Stim
Experimental: as §1, §2

mice [3] = assay: Tail-flick antinociception (T.F.), mouse tetrad; type: in vivo; conditions: for ED50: Mus musculus
mice [4] = assay: Rectal temperature (R.T.), mouse tetrad; type: in vivo; conditions: for ED50: Mus musculus
mice [5] = assay: Relative immobility (R.I.), ring-immobility test, mouse tetrad; type: in vivo; conditions: for ED50: Mus musculus
[6] = Experimental: By “water-soluble” we mean that 1 mg of material in 1 ml of water gives a clear solution and is water miscible.
as §1

mice [7] = assay: Tetrad model, all four behavioral measures together (time course, oral and i.c.v. administration); type: in vivo, mouse
[8] = maximal GTPγS binding as percentage of stimulation produced by CP 55,940
[9] = iv, mice, i.v., vehicle E:E:S (1:1:18), read-out: T.F. ED50 (antinociception in the tail-flick procedure)
[10] = iv, vehicle E:E:S (1:1:18), read-out: R.T. ED50 (lowering rectal temperature)
[11] = iv, vehicle E:E:S (1:1:18), read-out: R.I. ED50 (relative immobility)
[12] = Tables 2b, 3b, 4a, mean±SEM, read-out: CB1 Ki
[13] = [35S]GTPγS binding, read-out: CB1 EC50
[14] = 1 mg of analog in 1 ml of water, visual observation

T1 sequence (P21554 whole entry): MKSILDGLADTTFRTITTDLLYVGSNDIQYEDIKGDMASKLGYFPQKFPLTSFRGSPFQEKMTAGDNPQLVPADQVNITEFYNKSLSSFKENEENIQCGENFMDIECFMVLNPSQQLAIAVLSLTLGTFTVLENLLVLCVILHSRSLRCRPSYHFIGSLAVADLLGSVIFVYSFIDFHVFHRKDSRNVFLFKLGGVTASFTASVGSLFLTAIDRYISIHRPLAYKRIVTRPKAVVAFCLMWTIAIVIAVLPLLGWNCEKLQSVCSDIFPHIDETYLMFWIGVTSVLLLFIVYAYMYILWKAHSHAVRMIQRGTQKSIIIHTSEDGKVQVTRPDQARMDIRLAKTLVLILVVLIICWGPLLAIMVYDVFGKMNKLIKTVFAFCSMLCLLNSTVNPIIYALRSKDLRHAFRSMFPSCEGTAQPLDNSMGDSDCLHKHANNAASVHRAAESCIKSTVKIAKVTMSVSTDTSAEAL

Row | Compound | Ki (human CB1 receptor [1]; CB1 Ki) | EC50 (human CB1 receptor [2]; CB1 EC50, [35S]GTPγS binding) | Emax (human CB1 receptor [2]; [8]) | ED50 (mice [3]; [9]) | ED50 (mice [4]; [10]) | ED50 (mice [5]; [11]) | Solubility (water-soluble) [6] | Water solubility of the hydrochloride salt [6] | also measured
1 | CC1=CC[C@@H]2[C@@H](C1)c1c(O)cc(C(C)(C)CCCCC(=O)NN3CCCC3)cc1OC2(C)C [O-2543, N-(Pyrrolidin-yl)-carboxamido] | 23.3 ± 3.4 nM | 81.1 ± 40 nM | 71.3 ± 4.23% | 0.75 µmol/kg | 8.19 µmol/kg | 25.8 µmol/kg | No |  | 
2 | CC1=CC[C@@H]2[C@@H](C1)c1c(O)cc(C(C)(C)CCCCC(=O)N3CCCCCC3)cc1OC2(C)C [O-2421, Homopiperidino-carboxamido] | 4.24 ± 1.01 nM | 23.2 ± 2.06 nM | 81.8 ± 8.96% | 0.16 µmol/kg | 0.44 µmol/kg | 0.86 µmol/kg | No |  | 
3 | CC1=CC[C@@H]2[C@@H](C1)c1c(O)cc(C(C)(C)CCCCn3cncn3)cc1OC2(C)C [O-2716, 1,2,4-Triazol-1-yl] | 3.43 ± 0.16 nM | 36.8 ± 4.23 nM | 93.1 ± 1.65% | 0.09 µmol/kg | 0.15 µmol/kg | 0.2 µmol/kg | No |  | ED50 (mice [3]; iv, figure legends, mice, i.v., vehicle 1:1:18 ethanol:emulphor:saline, read-out: ED50 after i.v. administration, tail-flick): 0.09 µmol/kg; Antinociception following oral administration (mice [3]; oral, maximum dose tested 10 mg/kg, 30 minutes before testing): failed to produce complete antinociception; ED50 (mice [4]; iv, figure legends, i.v., vehicle 1:1:18 ethanol:emulphor:saline, read-out: ED50 after i.v. administration, rectal temperature): 0.15 µmol/kg; ED50 (mice [5]; iv, figure legends, i.v., vehicle 1:1:18 ethanol:emulphor:saline, read-out: ED50 after i.v. administration, relative immobility): 0.2 µmol/kg; Time course of effects after i.v. administration (mice [7]; FIG. 11, 0.1 mg/kg (0.24 μmoles/kg) i.v., vehicle 1:1:18): relatively short acting with most of the effects gone by 1 hour and no separation of effects; Time course of effects following oral administration (mice [7]; oral, 10 mg/kg, different time points before testing, 10 mg/kg): Maximal effects were observed at 30 min and only a slight decrease in activity was observed at 2 hrs; also recorded: effects lasted at least 2 hours
4 | CC1=CC[C@@H]2[C@@H](C1)c1c(O)cc(C(C)(C)CCCCC(N)=O)cc1OC2(C)C [O-2352, Carboxamido] | 13.1 ± 0.61 nM | 42 ± 4 nM | 95 ± 0.3% | 0.84 µmol/kg | 1.72 µmol/kg | 0.93 µmol/kg | No | none of the HCl salts was water-soluble | In vivo potency relative to Δ^9-THC (times more potent) (mice [7]; mice, i.v., 1:1:18 vehicle): slightly more potent than Δ^9-THC
5 | CC1=CC[C@@H]2[C@@H](C1)c1c(O)cc(C(C)(C)CCCCC(=O)N3CCCCC3)cc1OC2(C)C [O-2373, Piperidino-carboxamido] | 0.96 ± 0.11 nM | 13.5 ± 1.81 nM | 119 ± 2.05% | 0.03 µmol/kg | 0.03 µmol/kg | 0.04 µmol/kg | No | none of the HCl salts was water-soluble | 
6 | CC1=CC[C@@H]2[C@@H](C1)c1c(O)cc(C(C)(C)CCCCc3ncc[nH]3)cc1OC2(C)C [O-2737, 1H-Imidazol-2-yl] | 54 nM and 54.9 nM |  |  | > 24.5 µmol/kg | > 24.5 µmol/kg | > 24.5 µmol/kg | Yes |  | ED50 (mice [3]; iv, mice, i.v., vehicle saline, read-out: T.F. ED50 (antinociception in the tail-flick procedure)): > 2.2 µmol/kg; ED50 (mice [4]; iv, vehicle saline, read-out: R.T. ED50 (lowering rectal temperature)): > 2.2 µmol/kg; ED50 (mice [5]; iv, vehicle saline, read-out: R.I. ED50 (relative immobility)): > 2.2 µmol/kg
7 | CC1=CC[C@@H]2C(C1)c1c(OC(=O)CCCN(C(C)C)C(C)C)cc(C(C)(C)CCCCC(=O)N3CCOCC3)cc1OC2(C)C (stereo partly shown) [O-2694, Diisopropylaminobutyrate of Δ^8-THC-3-(1,1-dimethyl-6-morpholin-4-yl-6-oxo-hexyl)] |  |  | 120 ± 8.04% |  |  |  |  |  | Ki (human CB1 receptor [1]; [12]): 3.7 ± 0.43 nM; EC50 (human CB1 receptor [2]; [13]): 28.3 ± 3.47 nM; ED50 (mice [3]; Table 4b, mice, vehicle not indicated, read-out: T.F. ED50 (antinociception in the tail-flick procedure)): 0.035 µmol/kg; ED50 (mice [4]; Table 4b, vehicle not indicated, read-out: R.T. ED50 (lowering rectal temperature)): 0.12 µmol/kg; ED50 (mice [5]; Table 4b, vehicle not indicated, read-out: R.I. ED50 (relative immobility)): 0.11 µmol/kg; Solubility (water-soluble) [6, 14]: Yes
8 | CC1=CC[C@@H]2[C@@H](C1)c1c(O)cc(C(C)(C)CCCCC(=O)NN3CCOCC3)cc1OC2(C)C [O-2544, N-(Morpholin-1-yl)-carboxamido] | 5.97 ± 0.65 nM | 39.7 ± 11.4 nM | 116 ± 3.71% | 0.48 µmol/kg | 0.25 µmol/kg | 0.63 µmol/kg | No | none of the HCl salts was water-soluble | 
9 | CC1=CC[C@@H]2[C@@H](C1)c1c(O)cc(C(C)(C)CCCCC(=O)N3CCN(C)CC3)cc1OC2(C)C [O-2381, Methylepiperazino-carboxamido] | 112 ± 14 nM |  |  | 34 µmol/kg | 51 µmol/kg | 183 µmol/kg | No |  | Decrease of CB1 receptor affinity and pharmacological potency, piperidine to piperazine (human CB1 receptor [1]): more than a hundred fold
10 | CC1=CC[C@@H]2[C@@H](C1)c1c(O)cc(C(C)(C)CCCCC(=O)N3CCCC3)cc1OC2(C)C [O-2399, Pyrrolidino-carboxamido] | 2.85 ± 0.52 nM | 275 ± 87.9 nM | 117 ± 4.9% | 0.1 µmol/kg | 0.23 µmol/kg | 0.15 µmol/kg | No | none of the HCl salts was water-soluble | 
11 | CC1=CC[C@@H]2[C@@H](C1)c1c(O)cc(C(C)(C)CCCCC(=O)NN3CCCCCC3)cc1OC2(C)C [O-2489, N-(Homo-piperidin-1-yl)-carboxamido] | 15.8 ± 0.44 nM | 86.6 ± 17.4 nM | 112 ± 2.32% | 2.53 µmol/kg | 8.5 µmol/kg | 20.5 µmol/kg | No |  | 
12 | 1-(2-methyl-4-N-piperidinobutyryloxy) [O-2374] |  |  |  |  |  |  |  |  | Ki (human CB1 receptor [1]; [12]): 4.62 ± 2.2 nM; EC50 (human CB1 receptor [2]; [13]): 16.5 ± 6.97 nM; CB1 % CP Stim (human CB1 receptor [2]; [8]): 80.9 ± 3.73%; T.F. ED50 (antinociception in the tail-flick procedure) (mice [3]; mice, i.v., vehicle saline): 0.41 µmol/kg; R.T. ED50 (lowering rectal temperature) (mice [4]; i.v., vehicle saline): 0.72 µmol/kg; R.I. ED50 (relative immobility) (mice [5]; i.v., vehicle saline): 0.57 µmol/kg; Solubility (water-soluble) [6, 14]: Yes
13 | CC1=CC[C@@H]2[C@@H](C1)c1c(O)cc(C(C)(C)CCCCC(=O)N3CCOCC3)cc1OC2(C)C [O-2372, Morpholino-carboxamido] | 1.3 ± 0.12 nM | 5.88 ± 0.42 nM | 120 ± 1.11% | 0.01 µmol/kg | 0.07 µmol/kg | 0.03 µmol/kg | No | none of the HCl salts was water-soluble | 

— patent publication US20080064679A1, “Water Soluble Cannabinoids” (priority 2004, published 2008)
